Values quoted from earlier work as cited in patent US20100179115A1, “USE OF A GLUCOCORTICOID RECEPTOR II ANTAGONIST TO TREAT DEPRESSION IN PATIENTS TAKING IL-2” (Corcept Therapeutics, Inc., priority 2006, published 2010).

What was measured:
[1] = in one study (Kawai)
[2] = system: IL-1 induced memory deficits; conditions: Song 2002
severe major depression = conditions: four patients, one completed, no control group; Murphy 1993

fraction of the daily dose excreted in the urine [1]: less than 0.5%
SMILES: CC#C[C@]1(O)CC[C@H]2[C@@H]3CCC4=CC(=O)CCC4=C3[C@@H](c3ccc(N(C)C)cc3)C[C@@]21C [Mifepristone, 17-beta-hydroxy-11-beta-(4-dimethyl-aminophenyl)-17-alpha-(1-propynyl)-estra-4,9-dien-3-one]
recovery of rats that did not recover from the deleterious effects of IL-1 ([2]; after one or two treatments): complete recovery
effect on learning and memory impairments associated with IL-1 administration ([2]; rats, i.c.v. injection immediately prior to IL-1): significant reduction in learning and memory impairments
effectiveness in treating depression (severe major depression): no clear evidence that RU486 was effective
